Experimental data from patent US8481456B2 (priority 2009, dated 2013).
Where two headings read alike, the source gives them in different places.

What was measured:
[1] = tested on: larvae of the diamondback moth (Plutella xylostella); assay: Plutella xylostella test; assay type: in vivo; conditions: Plutella xylostella, 200 ppm a.i.
Description: Cabbage leaves (Brassica oleracea) are treated by being sprayed into the preparation of the active compound of the desired concentration and are infested with larvae of the diamondback moth (Plutella xylostella) as long as the leaves are still moist. After the specified period of time, the mortality in % is determined. 100% means that all the caterpillars have been killed; 0% means that none of the caterpillars have been killed.

Fusarium graminearum = assay type: in vivo; conditions: 1000 ppm a.i.; 5 days after the inoculation
[2] = tested on: larvae of the fall army worm (Spodoptera frugiperda); assay: Spodoptera frugiperda test/seed application; assay type: in vivo; conditions: 1 mg a.i./seed, corn seed treatment
Description: 14 days after sowing the leaves were cut off and infested with larvae of the fall army worm (Spodoptera frugiperda). After the specitied period of time, the mortality in % is determined. 100% means that all the caterpillars have been killed; 0% means that none of the caterpillars have been killed.

Alternaria solani = assay: Alternaria test (tomatoes)/preventive; assay type: in vivo; conditions: Alternaria solani, 72 h, 3 days after the inoculation; for pest or weed control at 12.5 ppm: 12.5 ppm a.i.; for pest or weed control at 25 ppm: 25 ppm a.i.
Botrytis cinerea = assay: Botrytis test (beans)/preventive; conditions: 2 days after the inoculation
Septoria tritici = Septoria tritici test (wheat)/preventive; assay type: in vivo; conditions: 500 ppm a.i.; 21 days after the inoculation
[3] = tested on: Fusarium nivale (var. majus); assay: Fusarium nivale (var. majus)-test (wheat)/preventive; conditions: 500 ppm a.i.; 5 days after the inoculation
Pyrenophora teres = Pyrenophora teres test (barley)/preventive; assay type: in vivo; conditions: 8 days after the inoculation
Phytophthora infestans = assay: whole plant or invertebrate; assay type: in vivo; conditions: Phytophthora infestans, 72 h, 3 days after the inoculation; for pest or weed control at 50 ppm: 50 ppm a.i.
[4] = tested on: larvae of the mustard beetle (Phaedon cochleariae); assay: Phaedon cochleariae larvae test; assay type: in vivo; conditions: 200 ppm a.i.
Description: Cabbage leaves (Brassica oleracea) are treated by being sprayed into the preparation of the active compound of the desired concentration and are infested with larvae of the mustard beetle (Phaedon cochleariae) as long as the leaves are still moist. After the specified period of time, the mortality in % is determined. 100% means that all the beetle larvae have been killed; 0% means that none of the beetle larvae have been killed.

[5] = tested on: Green peach aphid (Myzus persicae); assay: Myzus persicae test; assay type: in vivo; conditions: 200 ppm a.i.
Description: Cabbage leaves (Brassica oleracea) which are heavily infested by the Green peach aphid (Myzus persicae) are treated by being sprayed into the preparation of the active compound of the desired concentration. After the specified period of time, the mortality in % is determined. 100% means that all the aphids have been killed; 0% means that none of the aphids have been killed.

[6] = tested on: apple scab (Venturia inaequalis); assay: Venturia test (apples)/preventive; conditions: Venturia inaequalis, 240 h, read-out: Efficacy in %, found
[7] = 24 h, after 1 d, read-out: Mortality in % after 1 d, found
[8] = 48 h, after 2 d, read-out: Mortality in % after 2 d, found
[9] = read-out: Efficacy in %, found, Table E1
[10] = read-out: Efficacy in %, found, Table E2
[11] = 72 h, after 3 d, read-out: Mortality in % after 3 d, found

**Q.** How did the mortality at 200 ppm [1, 7] turn out when `Cn1c(=O)c2sc3c(=O)n(C)c(=O)c3sc2c1=O` [(I-1), 2,6-dimethyl-1H,5H-[1,4]dithiino[2,3-c:5,6-c′]dipyrrole-1,3,5,7(2H,6H)-tetrone] was run?
**A.** 0%

**Q.** And the mortality at 200 ppm [1, 8]?
**A.** 0%

**Q.** And the “Efficacy in %, found” value (Fusarium graminearum)?
**A.** 50%

**Q.** What about the “Efficacy in % 1 d after infestation, found” value ([2]; 1 d after infestation) of the same compound?
**A.** 0%

**Q.** What about the “Efficacy in % 3 d after infestation, found” value ([2]; 3 d after infestation) of the same compound?
**A.** 23.8%

**Q.** And the pest or weed control at 12.5 ppm (Alternaria solani; [9])?
**A.** 13%

**Q.** What about the pest or weed control at 25 ppm (Alternaria solani; [9]) of the same compound?
**A.** 54%

**Q.** And the pest or weed control at 12.5 ppm (Alternaria solani; [10])?
**A.** 30%

**Q.** And the pest or weed control at 25 ppm (Alternaria solani; [10])?
**A.** 50%

**Q.** And the pest or weed control at 50 ppm (Alternaria solani; read-out: Efficacy in %, found, Table E2, 50 ppm a.i.)?
**A.** 58%

**Q.** What about the “Efficacy in %, found” value (Botrytis cinerea; 25 ppm a.i.) of the same compound?
**A.** 13%

**Q.** What about the “Efficacy in %, found” value (Botrytis cinerea; 50 ppm a.i.) of the same compound?
**A.** 48%

**Q.** What about the “Efficacy in %, found” value (Septoria tritici) of the same compound?
**A.** 0%

**Q.** And the “Efficacy in %, found” value [3]?
**A.** 29%

**Q.** And the “Efficacy in %, found” value (Pyrenophora teres; Table J1, 1000 ppm a.i.)?
**A.** 43%

**Q.** What about the “Efficacy in %, found” value (Pyrenophora teres; Table J2, 500 ppm a.i.) of the same compound?
**A.** 43%

**Q.** What about the pest or weed control at 12.5 ppm (Phytophthora infestans; read-out: Efficacy in %, found, Table I1, 12.5 ppm a.i.) of the same compound?
**A.** 18%

**Q.** And the pest or weed control at 50 ppm (Phytophthora infestans; read-out: Efficacy in %, found, Table I1)?
**A.** 43%

**Q.** What about the pest or weed control at 50 ppm (Phytophthora infestans; read-out: Efficacy in %, found, Table I2) of the same compound?
**A.** 28%

**Q.** And the mortality at 200 ppm [4, 7]?
**A.** 0%

**Q.** What about the mortality at 200 ppm [4, 11] of the same compound?
**A.** 0%

**Q.** And the mortality at 200 ppm ([5]; after 4 h, read-out: Mortality in % after 4 h, found)?
**A.** 0%

**Q.** What about the mortality at 200 ppm [5, 7] of the same compound?
**A.** 0%

**Q.** And the mortality at 200 ppm [5, 8]?
**A.** 0%

**Q.** And the mortality at 200 ppm [5, 11]?
**A.** 0%

**Q.** What about the pest or weed control at 12.5 ppm [6] of the same compound?
**A.** 33%

**Q.** And the pest or weed control at 50 ppm [6]?
**A.** 29%
